Assays:
[1] = Stability in human liver microsomes; conditions: microsomes
[2] = Stability in human liver S9 fraction
[3] = Critical micellar concentration by surface tension; format: physicochemical; conditions: […] NaCl water solution
Description: The critical micellar concentration (CMC) was determined by surface tension (ST) measurements using a maximum bubble-pressure method which give surface tension values […] by potential impurities like static methods are. The tensiometer was a […] Research Corp., Milwaukee, Wis.) equipped with two glass probes of 0.5 and 4.0 mm diameters connected to a source of nitrogen. […] The surface tension values were plotted against the logarithm of the bile salt concentration; the regression lines corresponding to the two parts of the curve (monomeric and micellar phases) were calculated using the method of least squares, and the intersection of the lines was taken as the CMC value. From the ST vs concentration curves the value of the surface tension at the CMC (equilibrium between monomers and multimers species) was also calculated giving information about the detergency power which is related to the size of the micelles with associate surface tension lowering capacity. The CMC was evaluated by surface tension measurements in non equilibrium conditions i.e. in conditions that impurities slightly affect the surface tension results (FIG. 10).

[4] = Octanol/water partition coefficient (shake-flask); format: physicochemical; conditions: pH 8
[5] = target: bovine serum albumin (Bos taurus, UniProt P02769); experiment: Albumin binding by equilibrium dialysis; format: in vitro ADME; conditions: 100 μM BA in 5% bovine serum albumin-saline, pH 7.2
Chain of bovine serum albumin (P02769 25-607): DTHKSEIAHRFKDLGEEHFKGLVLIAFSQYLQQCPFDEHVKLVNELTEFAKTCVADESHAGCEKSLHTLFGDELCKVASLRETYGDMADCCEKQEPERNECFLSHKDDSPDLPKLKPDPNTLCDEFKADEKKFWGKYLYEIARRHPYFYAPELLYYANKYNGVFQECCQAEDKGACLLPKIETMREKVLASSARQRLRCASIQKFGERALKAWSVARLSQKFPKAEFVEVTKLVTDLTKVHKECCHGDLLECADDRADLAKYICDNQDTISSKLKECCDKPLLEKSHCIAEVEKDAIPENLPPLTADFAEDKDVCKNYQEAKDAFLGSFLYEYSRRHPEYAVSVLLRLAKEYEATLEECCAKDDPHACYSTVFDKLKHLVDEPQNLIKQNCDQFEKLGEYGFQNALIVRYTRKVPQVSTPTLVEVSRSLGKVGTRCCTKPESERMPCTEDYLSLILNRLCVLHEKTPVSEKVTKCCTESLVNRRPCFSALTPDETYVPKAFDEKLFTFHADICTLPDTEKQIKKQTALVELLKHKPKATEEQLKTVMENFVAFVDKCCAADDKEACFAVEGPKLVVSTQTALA
Description: The extent of albumin binding was evaluated by equilibrium dialysis at a fixed BA-albumin ratio. BA was dissolved at a concentration of 100 μM in 5% bovine serum albumin-saline solution (pH 7.2) and left to stand for 24 h at 25° C. Two milliliters of this solution was dialyzed in cellulose sacs having a molecular weight cut-off of 12-14,000 against 25 ml of saline solution. The system was equilibrated by mechanical gently shaking for 72 h at 25° C. BA concentrations of the dialyzed solution (corresponding to the free unbound fraction) and of the starting solution were determined with HPLC-ESI-MS/MS in the same conditions of the previous analysis.
The percent of albumin binding was calculate from the initial BA concentration and from the unbound concentration in the dialyzed fraction.

[6] = target: T1, LXRα (Homo sapiens, UniProt Q13133); experiment: LXR coactivator recruitment (alphascreen); format: biochemical
T1 sequence (Q13133 1-447): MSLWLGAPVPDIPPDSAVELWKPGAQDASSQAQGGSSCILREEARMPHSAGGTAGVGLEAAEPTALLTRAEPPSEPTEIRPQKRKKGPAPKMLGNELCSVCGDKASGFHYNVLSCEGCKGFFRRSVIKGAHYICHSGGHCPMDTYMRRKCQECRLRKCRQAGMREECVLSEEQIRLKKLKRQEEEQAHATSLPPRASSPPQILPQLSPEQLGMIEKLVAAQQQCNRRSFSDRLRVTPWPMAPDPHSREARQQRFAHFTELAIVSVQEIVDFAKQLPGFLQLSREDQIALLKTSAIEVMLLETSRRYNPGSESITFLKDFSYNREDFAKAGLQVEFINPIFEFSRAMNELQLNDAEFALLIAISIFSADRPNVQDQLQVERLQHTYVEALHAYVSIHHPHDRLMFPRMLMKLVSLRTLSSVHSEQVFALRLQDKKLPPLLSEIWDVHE

[7] = target: T2, CAR (Homo sapiens, UniProt Q14994); experiment: CAR coactivator recruitment (Lanthascreen); format: biochemical; conditions: read-out: CAR Activation EC50
T2 construct: purchased Invitrogen
T2 sequence (Q14994 109-352 limits assumed): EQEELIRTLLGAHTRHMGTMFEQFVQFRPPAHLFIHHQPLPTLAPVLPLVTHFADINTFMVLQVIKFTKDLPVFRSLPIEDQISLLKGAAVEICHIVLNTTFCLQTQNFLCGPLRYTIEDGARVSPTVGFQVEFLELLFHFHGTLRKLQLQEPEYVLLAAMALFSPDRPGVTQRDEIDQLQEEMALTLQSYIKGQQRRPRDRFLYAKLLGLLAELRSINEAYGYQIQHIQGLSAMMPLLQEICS
Description: CAR: Coactivator Recruitment (Lanthascreen)
Lanthascreen assay (Invitrogen) was used for nulear receptor selectivity assay. The kit uses a terbium-labeled anti-GST antibody, a fluorescein-labeled coactivator peptide, and a NR ligand-binding domain that is tagged with glutathione-S-transferase (GST) in a homogenous mix-and-read assay format. […] Following 1 hour incubation in the dark, TR-FRET measurements were made in the Envision. […] The data was analyzed using GraphPad Prism using the sigmoidal curve equation with variable slope to obtain EC50 values.

[8] = Water solubility; conditions: 0.1 M HCl
[9] = test system: HepG2 cells; experiment: HepG2 cytotoxicity (ATP decrease); conditions: read-out: CYTOTOXICITY ATP decrease EC50; 4 h
[10] = target: T3, VDR (Homo sapiens, UniProt P11473); experiment: VDR coactivator recruitment assay
T3 sequence (P11473 127-423 limits assumed): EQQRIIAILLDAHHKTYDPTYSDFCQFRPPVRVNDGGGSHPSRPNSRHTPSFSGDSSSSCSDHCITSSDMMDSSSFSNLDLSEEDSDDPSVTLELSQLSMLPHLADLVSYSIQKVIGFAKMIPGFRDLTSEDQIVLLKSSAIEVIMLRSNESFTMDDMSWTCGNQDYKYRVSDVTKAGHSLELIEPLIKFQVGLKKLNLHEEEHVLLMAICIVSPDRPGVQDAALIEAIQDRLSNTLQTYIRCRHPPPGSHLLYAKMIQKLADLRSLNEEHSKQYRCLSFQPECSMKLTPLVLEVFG

[11] = target: T4, PPARδ (Homo sapiens, UniProt Q03181); experiment: PPARδ coactivator recruitment assay
T4 sequence (Q03181 211-439 limits assumed): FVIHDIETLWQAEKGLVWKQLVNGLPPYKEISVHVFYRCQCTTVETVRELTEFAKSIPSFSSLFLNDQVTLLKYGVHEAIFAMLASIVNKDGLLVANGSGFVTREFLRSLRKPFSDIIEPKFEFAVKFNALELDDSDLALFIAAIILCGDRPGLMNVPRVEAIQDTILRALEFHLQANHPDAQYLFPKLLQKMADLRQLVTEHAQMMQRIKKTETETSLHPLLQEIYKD

Row | Compound | half-life [1] [min] | half-life [2] [min] | CMC […] Na+ [3] [mM] | STCMC (surface tension at CMC) [3] [Dyne/cm] | LogPA- (1-octanol-water partition coefficient, ionized species) [4] | Albumin Binding [5] [%] | LXRα Activation EC50 [6] | EC50 [7] [µM] | Ws (water solubility, protonated species) [8] [µM] | EC50 [9] [µM] | VDR Activation EC50 [10] | PPARδ Activation EC50 [11]
1 | C[C@]12CC[C@H]3[C@@H](CCC4=CC(=O)CC[C@@]43C)[C@@H]1CC[C@@H]2O [Testosterone, reference compound] | 8 to 20 | 39 | – | – | – | – | – | – | – | – | – | –
2 | C[C@H](CCC(=O)O)[C@H]1CC[C@H]2[C@@H]3[C@@H](O)C[C@@H]4C[C@H](O)CC[C@]4(C)[C@H]3CC[C@]12C [UDCA] | – | – | 6.0 | 50.5 | 2.2 | 94 | No activity | > 250 | 7.5 | > 1000 | No activity | No activity

From patent publication US8114862B2, “TGR5 modulators and methods of use thereof” (Intercept Pharmaceuticals, Inc., priority 2008, dated 2012)
